In this assay the target is T1, BtGH53 (BT_4668), GH53 endo-beta-(1->4)-galactanase (Bacteroides thetaiotaomicron, UniProt Q89YR3).
T1 sequence (Q89YR3 23-353): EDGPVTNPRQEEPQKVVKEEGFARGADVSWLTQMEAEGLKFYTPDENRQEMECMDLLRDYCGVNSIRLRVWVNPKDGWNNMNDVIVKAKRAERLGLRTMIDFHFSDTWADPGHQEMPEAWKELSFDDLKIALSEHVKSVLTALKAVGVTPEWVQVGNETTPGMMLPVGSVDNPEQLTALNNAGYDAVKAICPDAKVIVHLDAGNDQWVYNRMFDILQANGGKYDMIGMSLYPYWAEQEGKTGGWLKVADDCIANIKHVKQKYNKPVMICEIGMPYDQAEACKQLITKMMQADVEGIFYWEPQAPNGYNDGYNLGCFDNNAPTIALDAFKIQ
The experiment in a line: TLC and HPAEC-PAD of hydrolysis products. To be noted: component of purified GOS mixture (TS0903), not tested singly; 20 mM Tris pH 7.5, 150 mM NaCl, 37 °C, 16 h. It is filed as biochemical.

As for `OC[C@H]1O[C@@H](O[C@@H]2[C@H](O)[C@@H](O)[C@H](O[C@H]3[C@H](O)[C@@H](O)C(O)O[C@@H]3CO)O[C@@H]2CO)[C@H](O)[C@@H](O)[C@H]1O` (stereo partly drawn) [compound 9, β-D-Galp-(1 → 4)-β-D-Galp-(1 → 4)-β-D-Glc], the “TLC and HPAEC-PAD of hydrolysis products” value was “BtGH53 hydrolyzes linear DP3 and higher GOS compounds”.

The record behind these values is article PMC5238430, “Prebiotic galactooligosaccharides activate mucin and pectic galactan utilization pathways in the human gut symbiont Bacteroides thetaiotaomicron” (Scientific Reports, 2017).
